Laboratory results from patent publication US20240262848A1, “HETEROCYCLIC COMPOUNDS, COMPOSITIONS THEREOF, AND METHODS OF TREATMENT THEREWITH” (BeiGene, Ltd., priority 2022, published 2024).

Tests used:
[1] = target: GST-tagged GDP-loaded KRAS G12D (amin acids 1-188) (Homo sapiens, UniProt P01116, G12D); assay: KRAS G12D probe displacement assay (TR-FRET); assay type: binding; details: Table 5; KRAS G12D 0.5 nM, biotinylated probe 2 4 nM
Protocol: Plates are incubated at 24° C. for 1 hr.

[2] = test system: pERK1/2(THR202/TYR204) level in AsPC-1 cell line; assay: KRAS G12D pERK assay in AsPC-1 cells (HTRF); assay type: cell-based; details: Homo sapiens, ASPC1, Table 5, 2 h compound treatment
Protocol: AsPC-1 cell line was used in this study. Cells were maintained in RPMI-1640 supplemented with 10% fetal bovine serum (Thermo Fisher), 50 units/ml, penicillin and streptomycin (Thermo Fisher) and kept at 37° C. in a humidified atmosphere of 5% CO2 in air. Cells were reinstated from frozen stocks that were laid down within 30 passages from the original cells purchased. 30000 cells per well were seeded into a 96-well plate and incubated overnight. Cells were treated with a 10-point dilution series. The final compound concentration is from 0 to 10 μM. After 2 h compound treatment, cells were lysed, and the pERK1/2(THR202/TYR204) level in the cell lysates was detected by HTRF kit (Cisbio). In brief, a total of 16 μL of cell lysate from each well of a 96-well plate was transferred to a 384-well white assay plate. Lysate from each well was incubated with 2 μL of Eu3+-cryptate (donor) labeled anti-phospho-ERK1/2 and 2 μL of D2 (acceptor) labeled anti-phospho-ERK1/2 antibodies (Cisbio) overnight in dark at room temperature. When the donor and acceptor are in close proximity, excitation of the donor with laser triggers a Fluorescence Resonance Energy Transfer (FRET) towards the acceptor, which in turn fluoresces at 655 nm wavelength. FRET signals were measured using a PHERAstar FSX reader (BMG Labtech). IC50 determination was performed by fitting the curve of percent inhibition versus the log of the inhibitor concentration using Dotmatics.

[3] = target: GST-tagged GDP-loaded KRAS G12V (amino acids 1-169) (Homo sapiens, UniProt P01116, G12V); assay: KRAS G12V probe displacement assay (TR-FRET); assay type: binding; details: Table 4; KRAS G12V 2 nM, biotinylated probe 2 2.5 nM
GST-tagged GDP-loaded KRAS G12V (amino acids 1-169), sequence (P01116 1-169 isoform P01116-2 G12V): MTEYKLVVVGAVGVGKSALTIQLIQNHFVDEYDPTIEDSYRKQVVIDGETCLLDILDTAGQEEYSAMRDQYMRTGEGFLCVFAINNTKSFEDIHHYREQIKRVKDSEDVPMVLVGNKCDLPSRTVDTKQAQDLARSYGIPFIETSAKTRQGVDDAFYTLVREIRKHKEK
Protocol: Plates are incubated at 24 °C for 1 hr. […] After 1 hr incubation at 24° C.

[4] = test system: pERK1/2(THR202/TYR204) level in SW620 cell line; assay: KRAS G12V pERK assay in SW620 cells (HTRF); assay type: cell-based; details: Homo sapiens, SW-620, Table 4, 2 hrs compound treatment
How it was run: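 SW620 cells were treated for 2 h with a 10-point dilution series (final 0–10 μM) after overnight seeding. Lysates were then incubated overnight at room temperature with Eu3+-cryptate and acceptor anti-phospho-ERK1/2 antibodies, and HTRF was read at 655 nm. IC50 was fitted from percent inhibition versus log concentration.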

GST-tagged GDP-loaded KRAS G12D (amin acids 1-188), sequence (P01116 1-188 isoform P01116-2 G12D): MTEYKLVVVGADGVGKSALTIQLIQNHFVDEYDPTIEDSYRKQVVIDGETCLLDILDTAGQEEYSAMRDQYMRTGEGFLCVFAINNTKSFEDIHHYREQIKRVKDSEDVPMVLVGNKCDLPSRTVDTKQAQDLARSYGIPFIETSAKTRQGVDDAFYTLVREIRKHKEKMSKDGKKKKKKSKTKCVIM

C=C1CN2CCC[C@@]2(COc2nc3c4c(nc(-c5cc(N)cc(Cl)c5C(F)(F)F)c(F)c4n2)O[C@H]2COCC[C@@H]2N3C)C1 [Example 62, 3-chloro-5-((7aR,11aS)-4-fluoro-12-methyl-2-(((S)-2-methylenetetrahydro-1H-pyrrolizin-7a(5H)-yl)methoxy)-7a, 8,10,11,11a, 12-hexahydro-7,9-dioxa-1,3,6,12-tetraazapleiaden-5-yl)-4-(trifluoromethyl)aniline]
IC50 [1]: 0.23 nM
IC50 [2]: 12 nM
IC50 [3]: 0.25 nM
IC50 [4]: 5.5 nM

CN1c2nc(OC[C@@]34CCCN3C[C@H](F)C4)nc3c(F)c(-c4cc(N)cc(Cl)c4C(F)(F)F)nc(c23)OCCC12CC2 [Example 31, 3-chloro-5-(4-fluoro-2-(((2R,7aS)-2-fluorotetrahydro-1H-pyrrolizin-7a(5H)-yl)methoxy)-11-methyl-8,9-dihydro-11H-7-oxa-1,3,6,11-tetraazaspiro[cycloocta[de]naphthalene-10,1′-cyclopropan]-1(11a), 2,3a, 4,6-pentaen-5-yl)-4 (trifluoromethyl)aniline]
IC50 [1]: 0.43 nM
IC50 [2]: 40 nM
IC50 [3]: 0.51 nM
IC50 [4]: 32 nM

CCN1c2nc(OC[C@@]34CCCN3C[C@H](F)C4)nc3c(F)c(-c4cc(N)cc(Cl)c4C(F)(F)F)nc(c23)OCCC12COC2 [Example 35, 3-chloro-5-(11-ethyl-4-fluoro-2-(((2R,7aS)-2-fluorotetrahydro-1H-pyrrolizin-7a(5H)-yl)methoxy)-8,9-dihydro-11H-7-oxa-1,3,6,11-tetraazaspiro[cycloocta[de]naphthalene-10,3′-oxetan]-1(11a), 2,3a, 3a^1(6a), 5-pentaen-5-yl)-4-(trifluoromethyl)aniline]
IC50 [1]: 0.33 nM
IC50 [2]: 22 nM
IC50 [3]: 0.47 nM
IC50 [4]: 26 nM

C#Cc1c(F)ccc2cc(O)cc(-c3nc4c5c(nc(OC[C@@]67CCCN6C[C@H](F)C7)nc5c3F)N(C)CCCO4)c12 [Example 10, 5-ethynyl-6-fluoro-4-(4-fluoro-2-(((2R,7aS)-2-fluorotetrahydro-1H-pyrrolizin-7a(5H)-yl)methoxy)-11-methyl-8,9,10,11-tetrahydro-7-oxa-1,3,6,11-tetraazacycloocta[de]naphthalen-5-yl)naphthalen-2-ol]
IC50 [1]: 1.1 nM
IC50 [2]: 123 nM
IC50 [3]: 1.4 nM
IC50 [4]: 103 nM

CN1c2nc(OC[C@@]34CCCN3C[C@H](F)C4)nc3c(F)c(-c4cc(N)cc(Cl)c4C(F)(F)F)nc(c23)OC[C@@H]2COC[C@H]21 (single isomer, unassigned) [Example 68 Isomer 2]
IC50 [1]: 0.14 nM
IC50 [2]: 6.9 nM
IC50 [3]: 0.51 nM
IC50 [4]: 1.4 nM
